Patent US10532081B2, “Method of ameliorating or preventing the worsening or the progression of symptoms of BPH” (Nymox Corporation, priority 2016, dated 2020)
Marks after values point to notes of the source that are not given here.

Test system: Patients with BPH
Assay: Double-blind clinical study: intraprostatic injection in patients with BPH, symptoms evaluated by International Prostate Symptom Score (IPSS)
Type: in vivo, human
From the text: The International Prostate Symptom Score (I-PSS) is based on the answers to seven questions concerning urinary symptoms and one question concerning quality of life. Each question concerning urinary symptoms allows the patient to choose one out of six answers indicating increasing severity of the particular symptom. The answers are assigned points from 0 to 5. The total score can therefore range from 0 to 35 (asymptomatic to very symptomatic). The questions refer to the following urinary symptoms:
Patients with BPH were given an intraprostatic injection of either a) SEQ ID NO. 66 (Ile-Asp-Gln-Gln-Val-Leu-Ser-Arg-Ile-Lys-Leu-Glu-Ile-Lys-Arg-Cys-Leu) in phosphate buffered saline pH 7.2 (“PBS”) or b) PBS alone, under double-blind conditions by a urologist in an office setting under ultrasound guidance. Patients were followed for 1 to 6 years with regular physical examinations, laboratory tests, and evaluations of symptoms. Symptomatic evaluation was measured by the International Prostate Symptom Score (IPSS) which is a quantitative scale used to gauge prostatic symptomatic improvement or worsening. The IPSS quantifies the following: 1) incomplete bladder emptying after urination; 2) frequent urination; 3) stopping and starting during urination; 4) urgent need to urinate; 5) weakness of urinary stream; 6) need to push or strain during urination; 7) need to urinate after going to sleep at night (nocturia). The difference from baseline IPSS was compared in all patients who were given an intraprostatic injection of SEQ ID NO. 66 to the difference from baseline IPSS in patients who received PBS alone. […] 66 treated patients, there was also an unexpected decrease in the incidence of worsening and progression in symptoms in patients treated with SEQ ID NO. 66.
Patients with BPH were given an intraprostatic injection of either a) SEQ ID NO. 66 in phosphate buffered saline pH 7.2 (“PBS”) or b) PBS alone, under double-blind conditions by a urologist in an office setting under ultrasound guidance. Subsequently, 326 placebo and SEQ ID NO. 66 treated subjects were administered an intraprostatic injection of SEQ ID NO. 66 (2.5 mg). Patients were followed for 1 to 6 years with physical examinations, laboratory tests, and evaluations of symptoms. Symptomatic evaluation was measured by the International Prostate Symptom Score (IPSS) which is a quantitative scale used to gauge prostatic symptomatic improvement or worsening. The IPSS quantifies the following: 1) incomplete bladder emptying after urination; 2) frequent urination; 3) stopping and starting during urination; 4) urgent need to urinate; 5) weakness of urinary stream; 6) need to push or strain during urination; 7) need to urinate after going to sleep at night (nocturia). The difference from baseline IPSS was compared in placebo patients who subsequently received SEQ ID NO. 66 vs results in patients who received PBS alone. […] 66 treated patients there was also an unexpected decrease in the incidence of worsening or lack of improvement in symptoms in patients treated with SEQ ID NO. 66.
Patients with BPH were given an intraprostatic injection of either a) SEQ ID NO. 66 in phosphate buffered saline pH 7.2 (“PBS”) or b) PBS alone, under double-blind conditions by a urologist in an office setting under ultrasound guidance. Subsequently, 326 subjects were given an intraprostatic injection of SEQ ID NO. 66 (2.5 mg). Symptomatic evaluation was measured by the International Prostate Symptom Score (IPSS) which is a quantitative scale used to gauge prostatic symptomatic improvement or worsening. The IPSS quantifies the following: 1) incomplete bladder emptying after urination; 2) frequent urination; 3) stopping and starting during urination; 4) urgent need to urinate; 5) weakness of urinary stream; 6) need to push or strain during urination; 7) need to urinate after going to sleep at night (nocturia). […]

IDQQVLSRIKLEIKRCL [SEQ ID NO: 66, NTP peptide Ile-Asp-Gln-Gln-Val-Leu-Ser-Arg-Ile-Lys-Leu-Glu-Ile-Lys-Arg-Cys-Leu, injected intraprostatically in phosphate buffered saline pH 7.2]
Percentage of worsening of IPSS (Example 1: all patients given one intraprostatic injection of SEQ ID NO. 66 in PBS, followed 1 to 6 years, p < .02 vs PBS alone): 13.1%* | Percentage of worsening of IPSS or no improvement in IPSS (Example 2: placebo patients who subsequently received intraprostatic SEQ ID NO. 66 (2.5 mg), followed 1 to 6 years, p < 0.0001 vs PBS alone): 17.3%* | Percentage of worsening of IPSS or no improvement in IPSS (Example 3: patients who received two intraprostatic injections of SEQ ID NO. 66 (second 2.5 mg), p < 0.0001 vs PBS alone): 17.6%* | Percentage of worsening of IPSS or no improvement of IPSS (Example 4: all placebo and SEQ ID NO. 66 treated patients subsequently given intraprostatic SEQ ID NO. 66 (2.5 mg), followed 1 to 6 years, p < .0001 vs PBS alone): 17.5%* | Percentage of worsening of IPSS (Example 5: placebo patients who subsequently received intraprostatic SEQ ID NO. 66 (2.5 mg), followed 1 to 6 years, p < 0.0001 vs PBS alone): 9.0%* | Percentage of worsening of IPSS (Example 6: patients who received SEQ ID NO. 66 and subsequently SEQ ID NO. 66 (2.5 mg) intraprostatic, followed 1 to 6 years, p < 0.05 vs PBS alone): 13.5%* | Percentage of worsening of IPSS (Example 7: all placebo and SEQ ID NO. 66 treated patients subsequently given intraprostatic SEQ ID NO. 66 2.5 mg, followed 1 to 6 years, p < .0001 vs PBS alone): 11.7%* | Percentage of worsening of IPSS or no improvement of IPSS (Example 8: patients given one intraprostatic injection of SEQ ID NO. 66 in PBS, followed 1 to 6 years, p < .003 vs PBS alone): 36.4%* | improvement of symptoms (difference from baseline IPSS) compared to PBS alone (SEQ ID NO. 66 patients subsequently treated with SEQ ID NO. 66 (two injections)): more improvement | improvement of symptoms (difference from baseline IPSS) compared to PBS alone (all placebo and SEQ ID NO. 66 treated patients subsequently treated with SEQ ID NO. 66 (2.5 mg)): more improvement | improvement of symptoms (difference from baseline IPSS) compared to PBS alone (one intraprostatic injection of SEQ ID NO. 66, followed 1 to 6 years): more improvement | improvement of symptoms (difference from baseline IPSS) compared to PBS alone (placebo patients subsequently treated with SEQ ID NO. 66 (2.5 mg)): more improvement
